Results: the supplement of paper PMC10307832

Assays:
[1] = compound: CC1=C(C(=NN1)C)CC2=C(C3=C(S2)N(C(=O)N(C3=O)C)CC(C)C)C(=O)N4C[C@@H](CO4)O + NC(=O)Nc1cc(-c2cccc(F)c2)sc1C(=O)N[C@H]1CCCNC1 [AZD7762] (partner 0.2 µM); assay: relative viability (nuclei count vs DMSO), 5 days (fraction); higher = more cells survive
Summary of the method: (§1)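 Each reported value is a median over duplicate plates. It expresses relative viability: treated-well nuclei count divided by vehicle-well nuclei count. Lung cancer cell lines in 1536-well plates were dosed by pin tool a day after seeding, alone with one drug or with a fixed anchor-drug dose plus five library-drug doses (not always all listed) in √10 steps, and nuclei were counted after 5 days.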

[2] = compound: CC1=C(C(=NN1)C)CC2=C(C3=C(S2)N(C(=O)N(C3=O)C)CC(C)C)C(=O)N4C[C@@H](CO4)O + O=C(CCCCCCC(=O)Nc1ccccc1)NO [Vorinostat] (partner 1 µM); assay: as above
Summary of the method: as §1

Cell Line	relative viability ([1]; first compound 0.0025 µM)	relative viability ([1]; first compound 0.007906 µM)	relative viability ([1]; first compound 0.025 µM)	relative viability ([1]; first compound 0.07906 µM)	relative viability ([1]; first compound 0.25 µM)	relative viability ([2]; first compound 0.0025 µM)	relative viability ([2]; first compound 0.007906 µM)	relative viability ([2]; first compound 0.025 µM)	relative viability ([2]; first compound 0.07906 µM)	relative viability ([2]; first compound 0.25 µM)
NCI-H647	0.515	0.418	0.366	0.653	0.45	0.564	0.744	0.473	0.617	0.606
NCI-H650	1.03	0.961	0.893	0.936	0.913	0.549	0.516	0.393	0.35	0.545
NCI-H661						0.787	0.863	0.746	0.805	0.834
NCI-H727	0.6	0.842	0.575	0.623	0.652	1.16	1.25	1.05	1.05	1.13
NCI-H838	0.908	0.859	0.884	0.835	0.896	0.696	0.75	0.691	0.777	0.704
NCI-H1355	0.688	0.842	0.713	0.65	0.816	0.72	0.632	0.66	0.55	0.662
NCI-H1395	0.416	0.4	0.4	0.356	0.389	0.75	0.663	0.508	0.756	0.683
NCI-H1437	1.21	1.07	1.09	1.11	1.14	0.796	0.882	0.833	0.868	0.906
NCI-H1648	0.615	0.437	0.5	0.428	0.613	0.787	0.413	0.42	0.406	0.441
NCI-H1650						0.529	0.583	0.49	0.713	0.568
NCI-H1651	0.414	0.478	0.391	0.337	0.416	0.504	0.601	0.505	0.545	0.581
NCI-H1666	0.741	0.859	0.812	0.787	1.01	1.08	1.12	1.03	1.04	1.05
NCI-H1703	0.113	0.144	0.112	0.113	0.136					
NCI-H1734	0.53	0.581	0.342	0.402	0.381	0.88	0.868	0.768	0.745	0.76
NCI-H1755	0.465	0.434	0.425	0.407	0.471	0.792	0.781	0.724	0.632	0.719
NCI-H1792	0.607	0.727	0.512	0.564	0.578					
NCI-H1793	0.281	0.339	0.203	0.279	0.24	0.72	0.959	0.757	0.733	0.747
NCI-H1915	0.742	0.727	0.658	0.641	0.762	0.573	0.541	0.488	0.51	0.588
NCI-H1944	0.531	0.524	0.466	0.478	0.51	0.6	0.704	0.576	0.522	0.594

Cell Line	relative viability ([1]; first compound 0.0025 µM)	relative viability ([1]; first compound 0.007906 µM)	relative viability ([1]; first compound 0.025 µM)	relative viability ([1]; first compound 0.07906 µM)	relative viability ([1]; first compound 0.25 µM)	relative viability ([2]; first compound 0.0025 µM)	relative viability ([2]; first compound 0.007906 µM)	relative viability ([2]; first compound 0.025 µM)	relative viability ([2]; first compound 0.07906 µM)	relative viability ([2]; first compound 0.25 µM)
NCI-H1975	0.709	0.691	0.735	0.723	0.771	0.754	0.743	0.729	0.747	0.786
NCI-H1993	0.893	0.656	0.596	0.674	0.696	1.03	0.664	0.685	0.623	0.711
NCI-H2009						0.703	0.785	0.735	0.756	0.701
NCI-H2023						0.621	0.797	0.645	0.545	0.636
NCI-H2085	1.01	1.02	0.879	0.986	0.448	0.829	0.791	0.78	0.797	0.514
NCI-H2087	1.43	1.37	1.15	1.13	1.3	0.841	0.581	0.578	0.462	0.875
NCI-H2126	1.06	1.08	0.943	0.867	1.05	0.919	0.894	0.844	0.84	0.674
NCI-H2170	0.899	0.925	0.854	0.895	0.906	0.82	0.792	0.779	0.749	0.864
NCI-H2228						0.559	0.811	0.681	0.649	0.9
NCI-H2342	0.414	0.505	0.345	0.373	0.388	0.611	0.766	0.709	0.656	0.644
NCI-H2347	0.739	0.697	0.734	0.718	0.667	0.588	0.624	0.544	0.559	0.431
NCI-H2405	0.793	0.778	0.573	0.69	0.678	1.13	1.07	0.849	0.96	0.888
NCI-H3122	1.03	1.09	1.02	0.973	1.02	1.03	1.12	1.1	0.731	0.918
PC-3 [JPC-3]	0.872	0.76	0.69	0.976	0.806	0.853	0.898	0.741	0.972	0.797
PC-14	0.33	0.371	0.332	0.374	0.306	0.824	0.885	0.692	0.824	0.982
SK-LU-1						0.744	0.528	0.571	0.611	0.611
SK-MES-1						1.19	1.23	1.1	1.05	1.16
SW 1573						0.795	0.714	0.792	0.679	0.782
UMC-11						0.41	0.429	0.396	0.464	0.424
